Like-named read-outs stand apart in the source and are kept apart here.
Key:
[1] = test system: U2OS (osteosarcoma) cells; assay: WST-1 viability assay, U2OS cells; format: cell-based; conditions: Homo sapiens, read-out: IC50, U2OS (osteosarcoma)
[2] = test system: HeLa (cervical adenocarcinoma) cells; assay: WST-1 viability assay, HeLa cells; format: cell-based; conditions: Homo sapiens, read-out: IC50, HeLa (cervical adenocarcinoma)
[3] = Stability of 8 in buffer (chiral HPLC); format: physicochemical; conditions: 2 h in 50 mM HEPES, 0.01% TWEEN, 0.1% BSA
Description: vacuum manifold with the inert gas passing through a bed of activated 4 Å molecular sieves and self-indicating silica gel. Cs2CO3, K2CO3 and activated MnO2 were dried in an oven prior to use.
PhMgBr (in THF) was titrated against salicaldehyde phenylhydrazone prior to use, according to the procedure of Love and Jones.9
Reactions with microwave irradiation were carried out in a Biotage Initiator microwave […]
In vacuo refers to the use of a rotary evaporator attached to a diaphragm pump. Brine refers to a saturated aqueous solution of sodium chloride. Petroleum ether refers to the fraction boiling between 30–40 °C unless otherwise stated.
Stability of 8 in buffer: 0.5 mg of (+)-8 in 10 μL DMSO was suspended in buffer (50 mM HEPES, 0.01% TWEEN, 0.1% BSA). […]
Cytotoxcity of 8 in HeLa and U2OS cells: HeLa cells were grown and maintained in DMEM supplemented with L-glutamine and 10% fetal calf serum; U2OS cells were grown and maintained in McCoy’s medium supplemented with 10% fetal calf serum. […] After 24 h or 72 h, 10 μL of WST-1 (Roche Diagnostics) was added to the culture medium and cell viability was determined by colorimetric WST-1 conversion assay. Formazan dye formation was measured at 450 nm using a Molecular devices Spectramax Plus384 microplate reader. Relative WST-1 conversion in treated cells compared with untreated control cells was calculated after […]

BRD4(1) = target: T1, BRD4(1) (Homo sapiens, UniProt O60885); assay: AlphaScreen peptide displacement assay (ALPHA), BRD4(1); format: binding
T1 construct: amplify the N-terminal bromodomain region of the protein; made in house

CECR2 = target: T2, CECR2 (Homo sapiens, UniProt Q9BXF3); assay: ALPHA selectivity panel, CECR2; format: binding; conditions: 25 μM compound, ALPHA assay
T2 construct: the bromodomains from ATAD2, BAZ1A, BAZ2A, BAZ2B, BRD9, BRPF3, CECR2, GCN5L2, PHIP(1), PB1(1), and TIF1α; made in house
T2 sequence (Q9BXF3 434-538 limits assumed): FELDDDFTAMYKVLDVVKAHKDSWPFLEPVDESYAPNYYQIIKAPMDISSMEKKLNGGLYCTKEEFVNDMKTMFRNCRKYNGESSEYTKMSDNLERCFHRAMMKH
Description: (§1) The ALPHA assay was also used to determine the selectivity of 8, 9, and 17, 21–23 for BRD4(1) over the bromodomain of CREBBP (Table 2). […] The selectivity of 8 was further evaluated across a phylogenetically diverse range of bromodomains (Figure 5).
(§2) Bromodomain AlphaScreen assays were carried out as previously described.[24],[30] All experiments were carried out in duplicate on the same plate.

[4] = test system: H1975 (lung adenocarcinoma) cells; assay: MTS cytotoxicity assay, H1975 cells; format: cell-based; conditions: 100 μM, 72 h
Description: (§3) We also investigated the effects of 8 and 9 in two lung adenocarcinoma cell lines, A549 and H1975. […] H1975 appeared to be somewhat more sensitive to these compounds, a finding confirmed by a clonogenic survival assay (Supporting Information Figure S5).
(§4) Viability of MV4;11, H549, and H1975 cells was monitored by MTS-based CellTiter 96 AQueous nonradioactive cell proliferation assay (Promega, Madison, WI). Viability of U2OS and HeLa cells was monitored by WST-based cell proliferation kit (Roche, Mannheim, Germany). Further details are provided in Supporting Information

GCN5L2 = target: T3, GCN5L2 (Homo sapiens, UniProt Q92830); assay: ALPHA selectivity panel, GCN5L2; format: binding; conditions: 25 μM compound, ALPHA assay
T3 construct: the bromodomains from ATAD2, BAZ1A, BAZ2A, BAZ2B, BRD9, BRPF3, CECR2, GCN5L2, PHIP(1), PB1(1), and TIF1α; made in house
T3 sequence (Q92830 728-832 limits assumed): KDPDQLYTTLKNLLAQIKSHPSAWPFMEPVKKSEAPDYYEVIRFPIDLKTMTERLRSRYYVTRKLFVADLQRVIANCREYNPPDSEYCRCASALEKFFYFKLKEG
Description: as §1, §2

BAZ2A = target: T4, BAZ2A (Homo sapiens, UniProt Q9UIF9); assay: ALPHA selectivity panel, BAZ2A; format: binding; conditions: 25 μM compound, ALPHA assay
T4 construct: the bromodomains from ATAD2, BAZ1A, BAZ2A, BAZ2B, BRD9, BRPF3, CECR2, GCN5L2, PHIP(1), PB1(1), and TIF1α; made in house
T4 sequence (Q9UIF9 1793-1897 limits assumed): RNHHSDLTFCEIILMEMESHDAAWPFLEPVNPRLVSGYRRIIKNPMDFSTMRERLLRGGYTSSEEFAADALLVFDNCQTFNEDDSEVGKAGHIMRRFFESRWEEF
Description: as §1, §2

PHIP(1) = target: T5, PHIP(1) (Homo sapiens, UniProt Q8WWQ0); assay: ALPHA selectivity panel, PHIP(1); format: binding; conditions: 25 μM compound, ALPHA assay
T5 construct: the bromodomains from ATAD2, BAZ1A, BAZ2A, BAZ2B, BRD9, BRPF3, CECR2, GCN5L2, PHIP(1), PB1(1), and TIF1α; made in house
Description: as §1, §2

CREBBP bromodomain = target: T6, CREBBP bromodomain (Homo sapiens, UniProt Q92793); assay: AlphaScreen peptide displacement assay (ALPHA), CREBBP; format: binding; conditions: 25 μM compound
T6 construct: made in house
T6 sequence (Q92793 1085-1192 limits assumed): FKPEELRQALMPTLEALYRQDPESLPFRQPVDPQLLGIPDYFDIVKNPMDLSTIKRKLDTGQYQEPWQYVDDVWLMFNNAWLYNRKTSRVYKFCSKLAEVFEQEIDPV

BRPF3 = target: T7, BRPF3 (Homo sapiens, UniProt Q9ULD4); assay: ALPHA selectivity panel, BRPF3; format: binding; conditions: 25 μM compound, ALPHA assay
T7 construct: the bromodomains from ATAD2, BAZ1A, BAZ2A, BAZ2B, BRD9, BRPF3, CECR2, GCN5L2, PHIP(1), PB1(1), and TIF1α; made in house
T7 sequence (Q9ULD4 589-693 limits assumed): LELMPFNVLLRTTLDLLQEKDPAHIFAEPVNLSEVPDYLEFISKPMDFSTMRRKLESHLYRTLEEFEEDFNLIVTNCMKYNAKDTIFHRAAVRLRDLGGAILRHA
Description: as §1, §2

ATAD2 = target: T8, ATAD2 (Homo sapiens, UniProt Q6PL18); assay: ALPHA selectivity panel, ATAD2; format: binding; conditions: 25 μM compound, ALPHA assay
T8 construct: the bromodomains from ATAD2, BAZ1A, BAZ2A, BAZ2B, BRD9, BRPF3, CECR2, GCN5L2, PHIP(1), PB1(1), and TIF1α; made in house
T8 sequence (Q6PL18 980-1092 limits assumed): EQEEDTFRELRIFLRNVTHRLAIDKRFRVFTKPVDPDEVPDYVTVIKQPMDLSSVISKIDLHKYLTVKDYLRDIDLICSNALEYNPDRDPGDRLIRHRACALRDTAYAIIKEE
Description: as §1, §2

BRD9 = target: T9, BRD9 (Homo sapiens, UniProt Q9H8M2); assay: ALPHA selectivity panel, BRD9; format: binding; conditions: 25 μM compound, ALPHA assay
T9 construct: the bromodomains from ATAD2, BAZ1A, BAZ2A, BAZ2B, BRD9, BRPF3, CECR2, GCN5L2, PHIP(1), PB1(1), and TIF1α; made in house
T9 sequence (Q9H8M2 136-240 limits assumed): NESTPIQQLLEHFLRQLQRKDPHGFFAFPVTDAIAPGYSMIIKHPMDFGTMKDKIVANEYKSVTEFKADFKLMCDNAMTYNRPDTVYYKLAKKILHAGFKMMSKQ
Description: as §1, §2

PB1(1) = target: T10, PB1(1) (Homo sapiens, UniProt Q86U86); assay: ALPHA selectivity panel, PB1(1); format: binding; conditions: 25 μM compound, ALPHA assay
T10 construct: the bromodomains from ATAD2, BAZ1A, BAZ2A, BAZ2B, BRD9, BRPF3, CECR2, GCN5L2, PHIP(1), PB1(1), and TIF1α; made in house
T10 sequence (Q86U86 41-151 limits assumed): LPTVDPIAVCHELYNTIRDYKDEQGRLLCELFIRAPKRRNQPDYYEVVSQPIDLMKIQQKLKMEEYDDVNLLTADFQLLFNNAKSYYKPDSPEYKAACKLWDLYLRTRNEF
Description: as §1, §2

[5] = test system: A549 (lung adenocarcinoma) cells; assay: MTS cytotoxicity assay, A549 cells; format: cell-based; conditions: 100 μM, 72 h
Description: as §3, §4

BAZ2B = target: T11, BAZ2B (Homo sapiens, UniProt Q9UIF8); assay: ALPHA selectivity panel, BAZ2B; format: binding; conditions: 25 μM compound, ALPHA assay
T11 construct: the bromodomains from ATAD2, BAZ1A, BAZ2A, BAZ2B, BRD9, BRPF3, CECR2, GCN5L2, PHIP(1), PB1(1), and TIF1α; made in house
T11 sequence (Q9UIF8 2060-2164 limits assumed): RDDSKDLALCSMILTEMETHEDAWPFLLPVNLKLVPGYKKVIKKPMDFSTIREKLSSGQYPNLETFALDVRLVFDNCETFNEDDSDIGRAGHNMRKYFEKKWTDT
Description: as §1, §2

BAZ1A = target: T12, BAZ1A (Homo sapiens, UniProt Q9NRL2); assay: ALPHA selectivity panel, BAZ1A; format: binding; conditions: 25 μM compound, ALPHA assay
T12 construct: the bromodomains from ATAD2, BAZ1A, BAZ2A, BAZ2B, BRD9, BRPF3, CECR2, GCN5L2, PHIP(1), PB1(1), and TIF1α; made in house
T12 sequence (Q9NRL2 1430-1533 limits assumed): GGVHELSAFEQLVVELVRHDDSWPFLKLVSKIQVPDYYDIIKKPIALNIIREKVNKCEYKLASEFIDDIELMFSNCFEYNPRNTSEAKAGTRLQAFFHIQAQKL
Description: as §1, §2

TIF1α = target: T13, TIF1α (Homo sapiens, UniProt O15164); assay: ALPHA selectivity panel, TIF1α; format: binding; conditions: 25 μM compound, ALPHA assay
T13 construct: the bromodomains from ATAD2, BAZ1A, BAZ2A, BAZ2B, BRD9, BRPF3, CECR2, GCN5L2, PHIP(1), PB1(1), and TIF1α; made in house
T13 sequence (O15164 899-1004 limits assumed): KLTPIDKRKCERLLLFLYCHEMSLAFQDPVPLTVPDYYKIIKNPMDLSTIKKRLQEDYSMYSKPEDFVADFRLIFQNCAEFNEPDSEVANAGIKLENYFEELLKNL
Description: as §1, §2

[6] = viability after 72 h incubation using MTS

## Cc1sc2c(c1C)C(c1ccc(Cl)cc1)=N[C@@H](CC(=O)OC(C)(C)C)c1nnc(C)n1-2 [(+)-JQ1, reference compound]
[1]; 72 h
  IC50: 2.9 µM
[2]; 72 h
  IC50: 2.1 µM

## Cc1noc(C)c1-c1cc(O)cc([C@@H](O)c2ccccc2)c1 [(S)-(+)-8, 3-(3,5-Dimethylisoxazol-4-yl)-5-(hydroxy(phenyl)methyl)phenol]
[3]
  enantiomeric excess after incubation in buffer: > 98 % ee
  purity after incubation in buffer: 95%

## CCOc1cc(-c2c(C)noc2C)cc(C(C)O)c1 (centres unmarked) [Compound 3]
BRD4(1); comparison of ALPHA IC50 values
  selectivity for BRD4(1) over CREBBP bromodomain: approximately 6 fold
BRD4(1); for BRD4(1)
  ligand efficiency: 0.39
  lipophilic ligand efficiency: 3.12

## Cc1noc(C)c1-c1cc(O)cc(C(O)c2ccccc2)c1 (centres unmarked) [Compound 8, 3-(3,5-Dimethylisoxazol-4-yl)-5-(hydroxy(phenyl)methyl)phenol]
CECR2
  percentage inhibition of CECR2 bromodomain: little affinity
CECR2; read-out: percentage inhibition of CECR2 bromodomain
  inhibition at 25 µM: < 25%
[1]; [6]
  IC50: 19 µM
[4]
  effect on viability of H1975 cells: markedly reduced the viability
GCN5L2
  percentage inhibition of GCN5L2 bromodomain: little affinity
GCN5L2; read-out: percentage inhibition of GCN5L2 bromodomain
  inhibition at 25 µM: < 25%
BAZ2A
  percentage inhibition of BAZ2A bromodomain: little affinity
BAZ2A; read-out: percentage inhibition of BAZ2A bromodomain
  inhibition at 25 µM: < 25%
PHIP(1)
  percentage inhibition of PHIP(1) bromodomain: little affinity
PHIP(1); read-out: percentage inhibition of PHIP(1) bromodomain
  inhibition at 25 µM: < 25%
CREBBP bromodomain
  inhibition at 25 µM: ~100%
BRPF3
  percentage inhibition of BRPF3 bromodomain: little affinity
BRPF3; read-out: percentage inhibition of BRPF3 bromodomain
  inhibition at 25 µM: < 25%
ATAD2
  percentage inhibition of ATAD2 bromodomain: little affinity
ATAD2; read-out: percentage inhibition of ATAD2 bromodomain
  inhibition at 25 µM: < 25%
BRD9
  percentage inhibition of BRD9 bromodomain: little affinity
BRD9; read-out: percentage inhibition of BRD9 bromodomain
  inhibition at 25 µM: < 25%
PB1(1)
  percentage inhibition of PB1(1) bromodomain: little affinity
PB1(1); read-out: percentage inhibition of PB1(1) bromodomain
  inhibition at 25 µM: < 25%
[5]
  effect on viability of A549 cells: markedly reduced the viability
BAZ2B
  percentage inhibition of BAZ2B bromodomain: little affinity
BAZ2B; read-out: percentage inhibition of BAZ2B bromodomain
  inhibition at 25 µM: < 25%
BRD4(1); 25 μM compound, ALPHA assay, read-out: inhibition of the BRD4(1) bromodomain
  inhibition at 25 µM: ~100%
BAZ1A
  percentage inhibition of BAZ1A bromodomain: little affinity
BAZ1A; read-out: percentage inhibition of BAZ1A bromodomain
  inhibition at 25 µM: < 25%
[2]; [6]
  IC50: 24 µM
TIF1α
  percentage inhibition of TIF1α bromodomain: little affinity
TIF1α; read-out: percentage inhibition of TIF1α bromodomain
  inhibition at 25 µM: < 25%

— PMC3640414 (Journal of Medicinal Chemistry, 2013)
